Results: patent US9682961B2, “Quinazoline derivative” (CARNA BIOSCIENCES, INC., priority 2013, dated 2017)

Test system: Wnt/β-catenin signaling pathway
Assay: TCF-luciferase reporter gene assay (Wnt-3a stimulated HEK 293 cells)
Type: cell-based
Conditions: Homo sapiens, HEK293, Wnt-3a stimulation, read-out: Inhibitory activity against the Wnt/β-catenin signaling pathway
Protocol: Evaluation of inhibitory activity of the compounds of the present invention against the Wnt/β-catenin signaling pathway was performed by evaluating the inhibitory activity of the compounds of the present invention against the Wnt/β-catenin signaling pathway activated by the Wnt-3a ligand using a commercially available TCF-luciferase reporter gene assay system.
In a T75 flask, HEK 293 cells (ATCC No. CRL-1573) were added to a DMEM medium (manufactured by NACALAI TESQUE, INC., No. 08459-35) supplemented with 10% FBS (AusGeneX PTY LTD.) and 1% Penicillin/Streptomycin (NACALAI TESQUE, INC.). The cells in the flask were cultured in a 5% CO2 incubator.
The cultured HEK 293 cells were diluted with a DMEM medium supplemented with only 10% FBS so as to have a cell concentration of 2×10^5 cells/mL, and 100 μL each of the diluted cells were seeded into respective wells of 96-well plates (PerkinElmer Inc., ViewPlate No. 6005181), followed by culturing overnight in the 5% CO2 incubator. To an OptiMEM medium (Invitrogen® No. 11058), pGL4.49 [luc2p/TCF-LEF-RE/Hygro] plasmid DNA (Promega Corporation) and FuGENE® HD (Promega No. E2691) were added so as to have concentrations of 1 μg/mL and 3 μg/mL, respectively, to prepare a transfection solution as described in the protocol attached to the reagent. To the respective wells containing the HEK 293 cells cultured overnight, 100 μL each of the transfection solution was added gently, followed by culturing overnight in the 5% CO2 incubator to perform transfection.
To a DMEM medium, 0.5% charcoal/dextran treated Fetal Bovine Serum (Thermo Scientific No. SH30068.02) and LiCl (Sigma-Aldrich No. L9650) were added to prepare a LiCl-containing medium (final concentration of LiCl: 10 mM). The medium in the respective wells of the HEK 293 cells cultured overnight and transfected with a reporter gene was removed by decantation. The LiCl-containing medium (90 μL) was added gently to each well, followed by culturing overnight in the 5% CO2 incubator.
A DMSO stock solution of the compound to be tested was diluted 100-fold with a LiCl-containing medium so as to prepare a solution of the compound to be tested, which is 10 times the test concentration. Further, Recombinant Mouse Wnt-3a (R&D Systems, Inc. #1324-WN) was dissolved in a 0.1% BSA-PBA solution so as to have a concentration of 40 μg/mL, and the resultant solution was diluted with a LiCl-containing medium so as to have a concentration of 100 ng/mL, to prepare a Wnt-3a solution. To each well of the HEK 293 cells cultured overnight in the LiCl-containing medium, 10 μL each of the solution of the compound to be tested was added, followed by culturing in the 5% CO2 incubator for 2 hours (the final concentration of the compound to be tested: 3-0.03 μM). Thereafter, 10 μL each of the Wnt-3a solution was added to the respective wells, followed by further culturing for 5 hours.
Using ONE-Glo™ Luciferase Assay System (Promega Corporation, No. E6110), the luciferase activity of the cells in the wells was measured by a microplate reader (Synergy H1, BioTek Instruments, Inc.) An IC50 value was calculated from the luminescence intensity of each compound concentration, supposing that the luminescence intensity of a group with no addition of the compound and with Wnt-3a stimulation was 100%, and that the luminescence intensity of a group with no addition of the compound and with no Wnt-3a stimulation was 0%.

Question: How did the IC50 turn out when O[C@H]1CC[C@@H](Oc2cccc3cnc(Nc4ccc5nc[nH]c5c4)nc23)CC1 [Example 1, cis-4-({2-[(1H-benzo[d]imidazol-6-yl)amino]quinazolyn-8-yl}oxy)cyclohexanol] was run?
Answer: The IC50 was less than 300 nM.
